Patent publication US20090247559A1 (Exelixis, Inc., priority 2007, published 2009)

Legend:
[1] = biological target: PIM (PIM-1, PIM-2, and/or PIM-3); assay: PIM-1, PIM-2 and PIM-3 inhibition, biochemical chemiluminescence assays (Kinase Glo, IC50 determination); details: Table 1 activity class; PIM refers to PIM-1, PIM-2, and/or PIM-3; read-out: PIM IC50 (Activity B)
CK2 = CK2 (Homo sapiens, UniProt P68400); assay: CK2 inhibition, biochemical chemiluminescence holoenzyme assay (Kinase Glo, IC50 determination); details: Table 1 activity class; symbol given only if active; read-out: CK2 IC50 (Activity C)
CK2, sequence (P68400 whole entry): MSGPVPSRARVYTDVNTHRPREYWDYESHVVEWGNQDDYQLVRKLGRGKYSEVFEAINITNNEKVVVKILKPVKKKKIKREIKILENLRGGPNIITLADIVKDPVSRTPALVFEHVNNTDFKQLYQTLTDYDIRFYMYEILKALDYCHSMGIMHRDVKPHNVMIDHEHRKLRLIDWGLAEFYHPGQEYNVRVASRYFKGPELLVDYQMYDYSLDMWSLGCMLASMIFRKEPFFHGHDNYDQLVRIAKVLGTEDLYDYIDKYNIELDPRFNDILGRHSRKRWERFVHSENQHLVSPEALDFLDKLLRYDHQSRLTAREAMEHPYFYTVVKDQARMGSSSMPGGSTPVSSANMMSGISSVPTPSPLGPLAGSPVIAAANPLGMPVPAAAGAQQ
CK2, sequence (P67870 whole entry partner): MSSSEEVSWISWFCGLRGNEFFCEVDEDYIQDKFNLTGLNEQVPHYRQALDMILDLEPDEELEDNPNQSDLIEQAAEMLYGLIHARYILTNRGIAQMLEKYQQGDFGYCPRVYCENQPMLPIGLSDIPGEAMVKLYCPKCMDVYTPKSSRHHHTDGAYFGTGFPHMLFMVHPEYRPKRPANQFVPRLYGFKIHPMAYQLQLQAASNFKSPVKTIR
In short: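 Holoenzyme CK2 assay; compounds pre-incubated with substrate and enzyme, then reacted 150 min at 24-27° C. Remaining ATP measured as luminescence with Kinase Glo, and IC50 derived from the signal.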

Row | SMILES | IC50 [1] [µM] | IC50 (CK2) [µM]
1 | CC(O)CN(Cc1nc2c(oc3ccc(Br)cc32)c(=O)[nH]1)CC(C)O (stereo not drawn) [Compound 403, 2-{[bis(2-hydroxypropyl)amino]methyl}-8-bromo[1]benzofuro[3,2-d]pyrimidin-4(3H)-one] | < 10 | < 10
2 | O=C(Nc1ccc(-c2nc3c(oc4ccc(Br)cc43)c(=O)[nH]2)c(Cl)c1)c1ccc2cccnc2n1 [Compound 405, N-[4-(8-bromo-4-oxo-3,4-dihydro[1]benzofuro[3,2-d]pyrimidin-2-yl)-3-chlorophenyl]-1,8-naphthyridine-2-carboxamide] | < 10 | < 10
3 | CN(Cc1nc2c(oc3ccc(Br)cc32)c(=O)[nH]1)CC(O)CO (stereo not drawn) [Compound 409, 8-bromo-2-{[(2,3-dihydroxypropyl)(methyl)amino]methyl}[1]benzofuro[3,2-d]pyrimidin-4(3H)-one] | < 10 | < 10
4 | O=c1[nH]c(CN(CCO)CCO)nc2c1oc1ccc(Br)cc12 [Compound 410, 2-{[bis(2-hydroxyethyl)amino]methyl}-8-bromo[1]benzofuro[3,2-d]pyrimidin-4(3H)-one] | < 10 | < 10
5 | O=C(NCc1ccccc1Cl)C1(O)CCN(Cc2nc3c(oc4ccc(Br)cc43)c(=O)[nH]2)C1 (stereo not drawn) [Compound 411, ′1-[(8-bromo-4-oxo-3,4-dihydro[1]benzofuro[3,2-d]pyrimidin-2-yl)methyl]-N-[(2-chlorophenyl)methyl]-3-hydroxypyrrolidine-3-carboxamide] | < 10 | < 10
6 | O=C(Nc1ccncc1)Nc1ccc(-c2nc3c(oc4ccc(Br)cc43)c(=O)[nH]2)c(Cl)c1 [Compound 415, 1-[4-(8-bromo-4-oxo-3,4-dihydro[1]benzofuro[3,2-d]pyrimidin-2-yl)-3-chlorophenyl]-3-pyridin-4-ylurea] | < 10 | < 10
7 | Cc1ccc2oc3c(=O)[nH]c(CN4CC[C@H](O)C4)nc3c2c1[N+](=O)O [Compound 424, hydroxy(2-{[(3S)-3-hydroxypyrrolidin-1-yl]methyl}-8-methyl-4-oxo-3,4-dihydro[1]benzofuro[3,2-d]pyrimidin-9-yl)oxoammonium] | < 10 | < 10
8 | COc1cc2oc3c(=O)[nH]c(CN4CC[C@H](O)C4)nc3c2cc1Br [Compound 436, 8-bromo-2-{[(3S)-3-hydroxypyrrolidin-1-yl]methyl}-7-(methyloxy)[1]benzofuro[3,2-d]pyrimidin-4(3H)-one] | < 10 | < 10
9 | O=c1[nH]c(-c2ccc3c(NCC4CCNCC4)n[nH]c3c2)nc2c1oc1ccc(Br)cc12 [Compound 441, 8-bromo-2-{3-[(piperidin-4-ylmethyl)amino]-1H-indazol-6-yl}[1]benzofuro[3,2-d]pyrimidin-4(3H)-one] | < 10 | < 10
10 | O=c1[nH]c(CN2CC[C@H](O)C2)nc2c1oc1ccc(NCc3ccccc3)cc12 [Compound 443, 2-{[(3S)-3-hydroxypyrrolidin-1-yl]methyl}-8-[(phenylmethyl)amino][1]benzofuro[3,2-d]pyrimidin-4(3H)-one] | < 10 | < 10
11 | COc1cccc(CCNc2ccc3oc4c(=O)[nH]c(CN5CC[C@H](O)C5)nc4c3c2)c1OC [Compound 445, 8-({2-[2,3-bis(methyloxy)phenyl]ethyl}amino)-2-{[(3S)-3-hydroxypyrrolidin-1-yl]methyl}[1]benzofuro[3,2-d]pyrimidin-4(3H)-one] | < 10 | < 10
12 | CCCCNc1ccc2oc3c(=O)[nH]c(CN4CC[C@H](O)C4)nc3c2c1 [Compound 446, 8-(butylamino)-2-{[(3S)-3-hydroxypyrrolidin-1-yl]methyl}[1]benzofuro[3,2-d]pyrimidin-4(3H)-one] | < 10 | < 10
13 | O=c1[nH]c(CN2CC[C@H](O)C2)nc2c1oc1ccc(C#CCO)cc12 [Compound 454, 8-(3-hydroxyprop-1-yn-1-yl)-2-{[(3S)-3-hydroxypyrrolidin-1-yl]methyl}[1]benzofuro[3,2-d]pyrimidin-4(3H)-one] | < 10 | < 10
14 | O=c1[nH]c(CN2CC[C@H](O)C2)nc2c1oc1ccc(CCCO)cc12 [Compound 455, 8-(3-hydroxypropyl)-2-{[(3S)-3-hydroxypyrrolidin-1-yl]methyl}[1]benzofuro[3,2-d]pyrimidin-4(3H)-one] | < 10 | < 10
15 | O=c1[nH]c(CN2CC[C@H](O)C2)nc2c1oc1ccc(C#CCCCCO)cc12 [Compound 456, 8-(6-hydroxyhex-1-yn-1-yl)-2-{[(3S)-3-hydroxypyrrolidin-1-yl]methyl}[1]benzofuro[3,2-d]pyrimidin-4(3H)-one] | < 10 | < 10
16 | O=c1[nH]c(CN2CC[C@H](O)C2)nc2c1oc1ccc(CCCCCCO)cc12 [Compound 457, 8-(6-hydroxyhexyl)-2-{[(3S)-3-hydroxypyrrolidin-1-yl]methyl}[1]benzofuro[3,2-d]pyrimidin-4(3H)-one] | < 10 | < 10
17 | Cc1ccccc1CNc1ccc2oc3c(=O)[nH]c(CN4CC[C@H](O)C4)nc3c2c1 [Compound 461, 2-{[(3S)-3-hydroxypyrrolidin-1-yl]methyl}-8-{[(2-methylphenyl)methyl]amino}[1]benzofuro[3,2-d]pyrimidin-4(3H)-one] | < 10 | < 10
18 | O=c1[nH]c(CN2CC[C@H](O)C2)nc2c1oc1ccc(NCc3ccccc3F)cc12 [Compound 462] | < 10 | < 10
19 | O=c1[nH]c(CN2CC[C@H](O)C2)nc2c1oc1ccc(NCc3ccccn3)cc12 [Compound 463, 2-{[(3S)-3-hydroxypyrrolidin-1-yl]methyl}-8-[(pyridin-2-ylmethyl)amino][1]benzofuro[3,2-d]pyrimidin-4(3H)-one] | < 10 | < 10
20 | O=c1[nH]c(CN2CC[C@H](O)C2)nc2c1oc1ccc(NCc3cccc(C(F)(F)F)c3)cc12 [Compound 464, 2-{[(3S)-3-hydroxypyrrolidin-1-yl]methyl}-8-({[3-(trifluoromethyl)phenyl]methyl}amino)[1]benzofuro[3,2-d]pyrimidin-4(3H)-one] | < 10 | < 10
21 | O=c1[nH]c(CN2CC[C@H](O)C2)nc2c1oc1ccc(NCc3ccc(F)cc3F)cc12 [Compound 465, 8-{[(2,4-difluorophenyl)methyl]amino}-2-{[(3S)-3-hydroxypyrrolidin-1-yl]methyl}[1]benzofuro[3,2-d]pyrimidin-4(3H)-one] | < 10 | < 10
22 | COc1ccccc1CNc1ccc2oc3c(=O)[nH]c(CN4CC[C@H](O)C4)nc3c2c1 [Compound 466, 2-{[(3S)-3-hydroxypyrrolidin-1-yl]methyl}-8-({[2-(methyloxy)phenyl]methyl}amino)[1]benzofuro[3,2-d]pyrimidin-4(3H)-one] | < 10 | < 10
23 | COc1cccc(CNc2ccc3oc4c(=O)[nH]c(CN5CC[C@H](O)C5)nc4c3c2)c1 [Compound 467, 2-{[(3S)-3-hydroxypyrrolidin-1-yl]methyl}-8-({[3-(methyloxy)phenyl]methyl}amino)[1]benzofuro[3,2-d]pyrimidin-4(3H)-one] | < 10 | < 10
24 | COc1ccc(CNc2ccc3oc4c(=O)[nH]c(CN5CC[C@H](O)C5)nc4c3c2)cc1 [Compound 468, 2-{[(3S)-3-hydroxypyrrolidin-1-yl]methyl}-8-({[4-(methyloxy)phenyl]methyl}amino)[1]benzofuro[3,2-d]pyrimidin-4(3H)-one] | < 10 | < 10
25 | O=c1[nH]c(CN2CC[C@H](O)C2)nc2c1oc1ccc(NCCc3cccc(F)c3)cc12 [Compound 472, 8-{[2-(3-fluorophenyl)ethyl]amino}-2-{[(3S)-3-hydroxypyrrolidin-1-yl]methyl}[1]benzofuro[3,2-d]pyrimidin-4(3H)-one] | < 10 | < 10
26 | O=c1[nH]c(CN2CC[C@H](O)C2)nc2c1oc1ccc(NCCc3cccc(C(F)(F)F)c3)cc12 [Compound 473, 2-{[(3S)-3-hydroxypyrrolidin-1-yl]methyl}-8-({2-[3-(trifluoromethyl)phenyl]ethyl}amino)[1]benzofuro[3,2-d]pyrimidin-4(3H)-one] | < 10 | < 10
27 | COc1ccc(CCNc2ccc3oc4c(=O)[nH]c(CN5CC[C@H](O)C5)nc4c3c2)cc1OC [Compound 474, 8-({2-[3,4-bis(methyloxy)phenyl]ethyl}amino)-2-{[(3S)-3-hydroxypyrrolidin-1-yl]methyl}[1]benzofuro[3,2-d]pyrimidin-4(3H)-one] | < 10 | < 10
28 | O=c1[nH]c(CN2CC[C@H](O)C2)nc2c1oc1ccc(OCc3ccccc3)cc12 [Compound 475, 2-{[(3S)-3-hydroxypyrrolidin-1-yl]methyl}-8-[(phenylmethyl)oxy][1]benzofuro[3,2-d]pyrimidin-4(3H)-one] | < 10 | < 10
29 | CC(C)COc1ccc2oc3c(=O)[nH]c(CN4CC[C@H](O)C4)nc3c2c1 [Compound 477, 2-{[(3S)-3-hydroxypyrrolidin-1-yl]methyl}-8-[(2-methylpropyl)oxy][1]benzofuro[3,2-d]pyrimidin-4(3H)-one] | < 10 | < 10
30 | CCOC(=O)Cc1ccc2oc3c(=O)[nH]c(CN4CC[C@H](O)C4)nc3c2c1 [Compound 491, ethyl (2-{[(3S)-3-hydroxypyrrolidin-1-yl]methyl}-4-oxo-3,4-dihydro[1]benzofuro[3,2-d]pyrimidin-8-yl)acetate] | < 10 | < 10
